Test results taken from patent US8178709B2, “Iron preparation suitable for pharmaceutical formulation and process for the preparation thereof” (BioLink Life Sciences, Inc., priority 2009, dated 2012).

Tests used:
human apotransferrin = human apotransferrin (Homo sapiens, UniProt P02787); test: Iron binding to human apotransferrin (method of Bates, absorbance at 470 nm); details: Tris buffer with bicarbonate, pH 7.5, 25.0° C., FIG. 1
Text: The major iron transport pool in human serum is iron bound to apotransferrin, an 80 kDa bilobal protein with two iron binding sites. The function of apotransferrin is: i) to bind iron and as transferrin (iron-laden apotransferrin) move iron from storage depots (ferritin) to various cell receptors; ii) to prevent iron from engaging in redox reactions which produce toxic free radicals; and iii) to prevent bacterial acquisition of this essential nutrient. Consequently, the best way to introduce iron into the normal metabolic pool is to deliver it to apotransferrin. […] Therefore, we measured the kinetics of Fe-transferrin formation from iron preparations of the invention and compared the kinetics to the kinetics of Fe-transferrin formation from commercial soluble ferric pyrophosphate and ferric sulfate-NTA complex at identical conditions according to the method of Bates, et al. [Bates, G. W., Billups, C. […]
The following test articles were evaluated in this study: Products 2-1 through 2-4 (described in Example 2); soluble ferric pyrophosphate (SFP), lot 112362 manufactured by The Dr. Paul Lohmann Chemical Company, Emmerthal, Germany (“Lohmann”); and ferric sulfate:NTA chelate.
Experimental Details. […] The binding of iron to apotransferrin was monitored at 470 nm, the absorption maximum for ferric transferrin. […]

macrophages = details: ferric citrate-treated macrophages; cited from earlier work

human apotransferrin, sequence (P02787 20-698): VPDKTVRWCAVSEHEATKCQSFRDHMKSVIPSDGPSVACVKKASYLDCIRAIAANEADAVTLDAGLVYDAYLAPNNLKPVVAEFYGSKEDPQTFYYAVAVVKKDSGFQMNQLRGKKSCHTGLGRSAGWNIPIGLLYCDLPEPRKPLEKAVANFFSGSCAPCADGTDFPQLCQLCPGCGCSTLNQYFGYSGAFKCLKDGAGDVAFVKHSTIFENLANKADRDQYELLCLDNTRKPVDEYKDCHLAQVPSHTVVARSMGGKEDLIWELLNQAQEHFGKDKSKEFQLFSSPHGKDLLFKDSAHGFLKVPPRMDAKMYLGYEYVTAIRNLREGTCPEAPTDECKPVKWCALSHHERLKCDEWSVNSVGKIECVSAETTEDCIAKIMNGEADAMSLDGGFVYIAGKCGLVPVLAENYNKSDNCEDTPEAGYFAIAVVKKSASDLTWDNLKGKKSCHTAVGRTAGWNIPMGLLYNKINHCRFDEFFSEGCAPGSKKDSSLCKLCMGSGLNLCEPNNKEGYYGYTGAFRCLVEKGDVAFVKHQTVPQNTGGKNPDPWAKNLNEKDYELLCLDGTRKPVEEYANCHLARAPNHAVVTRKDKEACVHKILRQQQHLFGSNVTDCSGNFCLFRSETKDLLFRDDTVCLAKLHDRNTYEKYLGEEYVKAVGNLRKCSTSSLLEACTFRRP

Extent (efficiency) of iron uptake by human apotransferrin (human apotransferrin) | Substance | Level of lipid peroxidation (macrophages) | Phagocytic capacity (macrophages)
near quantitative efficiency | soluble ferric pyrophosphate | – | –
– | ferric citrate | significantly elevated | inhibited in a dose-related manner
near quantitative efficiency | ferric sulfate:NTA chelate [ferric sulfate-NTA chelate] | – | –
